For the assay, the system named is human mixed lymphocyte reaction (MLR). Description: human mixed lymphocyte reaction (MLR), serum free variation. The format is cell-based. The settings on record: Homo sapiens, Lymphocyte, serum-free medium AIM V, Table 3. The method, then:
In vitro Assay of Biological Activity (Serum Free MLR)
The in viitro immunosuppressant activity of the compounds of the present invention can also be determined using a variation of the human mixed lymphocyte reaction (MLR) assay described by Kino, T. et al. in Transplantation Proceedings, XIX(5):36-39, Suppl. 6 (1987). In this assay, the cell culture was performed in a serum-free medium, AIM V (GibcoBRL Life Technologies, Grand Island, N.Y.), instead of the usual RPMI 1640 plus 10% heat-inactivated fetal bovine serum medium. The final cell concentrations of the responder and stimulator peripheral blood mononuclear cells were, respectively, 5×10^5/mL and 2×10^6/mL of cells pooled from four donors.

One may read the IC50 as the concentration that gives 50% inhibition. A low value points to inhibition by little substance. In turn, `CCOC(=O)CCSC1CCC(C=C(C)C2OC(=O)C3CCCCN3C(=O)C(=O)C3(O)OC(C(OC)CC(C)CC(C)=CC(CC)C(=O)CC(O)C2C)C(OC)CC3C)CC1OC` (stereo not drawn) [Example 10] had an IC50 of 3.2 nM. In turn, `CCC1C=C(C)CC(C)CC(OC)C2OC(O)(C(=O)C(=O)N3CCCCC3C(=O)OC(C(C)=CC3CCC(SCCC(=O)OCCOC)C(OC)C3)C(C)C(O)CC1=O)C(C)CC2OC` (stereo not drawn) [Example 11] gave an IC50 of 2.1 nM. `CCC1C=C(C)CC(C)CC(OC)C2OC(O)(C(=O)C(=O)N3CCCCC3C(=O)OC(C(C)=CC3CCC(SCCC(=O)OCC(F)(F)F)C(OC)C3)C(C)C(O)CC1=O)C(C)CC2OC` (stereo not drawn) [Example 12] yielded an IC50 of 1.7 nM. In turn, `CCC1C=C(C)CC(C)CC(OC)C2OC(O)(C(=O)C(=O)N3CCCCC3C(=O)OC(C(C)=CC3CCC(SCCC(=O)OCCO)C(OC)C3)C(C)C(O)CC1=O)C(C)CC2OC` (stereo not drawn) [Example 13] registered a 50% inhibitory concentration (IC50) of 3.1 nM. The result for `CCC1C=C(C)CC(C)CC(OC)C2OC(O)(C(=O)C(=O)N3CCCCC3C(=O)OC(C(C)=CC3CCC(SCCC(=O)OC4CCCCC4)C(OC)C3)C(C)C(O)CC1=O)C(C)CC2OC` (stereo not drawn) [Example 14] reads 6.2 nM. The value for `CCC1C=C(C)CC(C)CC(OC)C2OC(O)(C(=O)C(=O)N3CCCCC3C(=O)OC(C(C)=CC3CCC(SCCC(=O)OC(C)(C)C)C(OC)C3)C(C)C(O)CC1=O)C(C)CC2OC` (stereo not drawn) [Example 15] was 1.5 nM.

The molecule `CCC1C=C(C)CC(C)CC(OC)C2OC(O)(C(=O)C(=O)N3CCCCC3C(=O)OC(C(C)=CC3CCC(SCCC(=O)OCCN(C)C)C(OC)C3)C(C)C(O)CC1=O)C(C)CC2OC` (stereo not drawn) [Example 16] came in with an IC50 of 2.2 nM. On to `CCC1C=C(C)CC(C)CC(OC)C2OC(O)(C(=O)C(=O)N3CCCCC3C(=O)OC(C(C)=CC3CCC(SCCC(=O)OCCCS(=O)(=O)O)C(OC)C3)C(C)C(O)CC1=O)C(C)CC2OC` (stereo not drawn) [Example 17], for which the 50% inhibitory concentration (IC50) is 31.2 nM.

For `CCC1C=C(C)CC(C)CC(OC)C2OC(O)(C(=O)C(=O)N3CCCCC3C(=O)OC(C(C)=CC3CCC(SCCC(=O)O)C(OC)C3)C(C)C(O)CC1=O)C(C)CC2OC` (stereo not drawn) [Example 19], it took 2.9 nM to reach half-maximal inhibition (IC50).

On to `CCC1C=C(C)CC(C)CC(OC)C2OC(O)(C(=O)C(=O)N3CCCCC3C(=O)OC(C(C)=CC3CCC(SCCC(=O)OC(C)C)C(OC)C3)C(C)C(O)CC1=O)C(C)CC2OC` (stereo not drawn) [Example 20], for which the IC50 was determined as 12.7 nM.

On to `CCC(CC)OC(=O)CCSC1CCC(C=C(C)C2OC(=O)C3CCCCN3C(=O)C(=O)C3(O)OC(C(OC)CC(C)CC(C)=CC(CC)C(=O)CC(O)C2C)C(OC)CC3C)CC1OC` (stereo not drawn) [Example 21], for which the IC50 stood at 5.4 nM.

For the molecule `CCC1C=C(C)CC(C)CC(OC)C2OC(O)(C(=O)C(=O)N3CCCCC3C(=O)OC(C(C)=CC3CCC(SCCC(N)=O)C(OC)C3)C(C)C(O)CC1=O)C(C)CC2OC` (stereo not drawn) [Example 22], half-maximal inhibition (IC50) required 0.02 nM.

For `CCC1C=C(C)CC(C)CC(OC)C2OC(O)(C(=O)C(=O)N3CCCCC3C(=O)OC(C(C)=CC3CCC(SCCC(=O)N4CCOCC4)C(OC)C3)C(C)C(O)CC1=O)C(C)CC2OC` (stereo not drawn) [Example 23], the IC50 amounted to 0.04 nM. For the molecule `CCC1C=C(C)CC(C)CC(OC)C2OC(O)(C(=O)C(=O)N3CCCCC3C(=O)OC(C(C)=CC3CCC(SCCC(=O)NO)C(OC)C3)C(C)C(O)CC1=O)C(C)CC2OC` (stereo not drawn) [Example 24], it took 0.8 nM to reach half-maximal inhibition (IC50). The molecule `CCC1C=C(C)CC(C)CC(OC)C2OC(O)(C(=O)C(=O)N3CCCCC3C(=O)OC(C(C)=CC3CCC(SCCC(=O)N(C)O)C(OC)C3)C(C)C(O)CC1=O)C(C)CC2OC` (stereo not drawn) [Example 25] registered an IC50 of 0.2 nM. The result for `CCC1C=C(C)CC(C)CC(OC)C2OC(O)(C(=O)C(=O)N3CCCCC3C(=O)OC(C(C)=CC3CCC(SCCC(=O)N(O)C(C)C)C(OC)C3)C(C)C(O)CC1=O)C(C)CC2OC` (stereo not drawn) [Example 26] reads 7 nM; that for `CCC1C=C(C)CC(C)CC(OC)C2OC(O)(C(=O)C(=O)N3CCCCC3C(=O)OC(C(C)=CC3CCC(SCC(=O)OCc4ccccc4)C(OC)C3)C(C)C(O)CC1=O)C(C)CC2OC` (stereo not drawn) [Example 27], 3.7 nM; that for `CCC1C=C(C)CC(C)CC(OC)C2OC(O)(C(=O)C(=O)N3CCCCC3C(=O)OC(C(C)=CC3CCC(SCC(=O)OC)C(OC)C3)C(C)C(O)CC1=O)C(C)CC2OC` (stereo not drawn) [Example 28], 1.6 nM. Take `CCC1C=C(C)CC(C)CC(OC)C2OC(O)(C(=O)C(=O)N3CCCCC3C(=O)OC(C(C)=CC3CCC(SCC(=O)OC(C)(C)C)C(OC)C3)C(C)C(O)CC1=O)C(C)CC2OC` (stereo not drawn) [Example 29]: 1.8 nM corresponded to half-maximal inhibition (IC50). The result for `CCC1C=C(C)CC(C)CC(OC)C2OC(O)(C(=O)C(=O)N3CCCCC3C(=O)OC(C(C)=CC3CCC(SCC(=O)O)C(OC)C3)C(C)C(O)CC1=O)C(C)CC2OC` (stereo not drawn) [Example 30] reads 9.1 nM.

`CCOC(=O)CSC1CCC(C=C(C)C2OC(=O)C3CCCCN3C(=O)C(=O)C3(O)OC(C(OC)CC(C)CC(C)=CC(CC)C(=O)CC(O)C2C)C(OC)CC3C)CC1OC` (stereo not drawn) [Example 31] had an IC50 of 8.2 nM. For `CCC1C=C(C)CC(C)CC(OC)C2OC(O)(C(=O)C(=O)N3CCCCC3C(=O)OC(C(C)=CC3CCC(SCC(=O)OC(C)C)C(OC)C3)C(C)C(O)CC1=O)C(C)CC2OC` (stereo not drawn) [Example 32], the midpoint of inhibition, the IC50, lay at 6.5 nM. The result for `CCC1C=C(C)CC(C)CC(OC)C2OC(O)(C(=O)C(=O)N3CCCCC3C(=O)OC(C(C)=CC3CCC(SCC(=O)OCC(F)(F)F)C(OC)C3)C(C)C(O)CC1=O)C(C)CC2OC` (stereo not drawn) [Example 33] reads 47 nM. The value for `CCC1C=C(C)CC(C)CC(OC)C2OC(O)(C(=O)C(=O)N3CCCCC3C(=O)OC(C(C)=CC3CCC(SCC(=O)OCCO)C(OC)C3)C(C)C(O)CC1=O)C(C)CC2OC` (stereo not drawn) [Example 34] was 60.8 nM; that for `CCC1C=C(C)CC(C)CC(OC)C2OC(O)(C(=O)C(=O)N3CCCCC3C(=O)OC(C(C)=CC3CCC(SCC(=O)OCCOC)C(OC)C3)C(C)C(O)CC1=O)C(C)CC2OC` (stereo not drawn) [Example 35] was 27.1 nM. The value for `CCC1C=C(C)CC(C)CC(OC)C2OC(O)(C(=O)C(=O)N3CCCCC3C(=O)OC(C(C)=CC3CCC(SCC(=O)OCCN(C)C)C(OC)C3)C(C)C(O)CC1=O)C(C)CC2OC` (stereo not drawn) [Example 36] was 24.2 nM; that for `CCC1C=C(C)CC(C)CC(OC)C2OC(O)(C(=O)C(=O)N3CCCCC3C(=O)OC(C(C)=CC3CCC(SCC(=O)OCCOCc4ccccc4)C(OC)C3)C(C)C(O)CC1=O)C(C)CC2OC` (stereo not drawn) [Example 37] was 16.4 nM; that for `CCC1C=C(C)CC(C)CC(OC)C2OC(O)(C(=O)C(=O)N3CCCCC3C(=O)OC(C(C)=CC3CCC(SCC(=O)NO)C(OC)C3)C(C)C(O)CC1=O)C(C)CC2OC` (stereo not drawn) [Example 38] was 7.5 nM.

Molecule `CCC1C=C(C)CC(C)CC(OC)C2OC(O)(C(=O)C(=O)N3CCCCC3C(=O)OC(C(C)=CC3CCC(SCC(=O)N(C)O)C(OC)C3)C(C)C(O)CC1=O)C(C)CC2OC` (stereo not drawn) [Example 39] registered an IC50 of 4.8 nM. The result for `CCC1C=C(C)CC(C)CC(OC)C2OC(O)(C(=O)C(=O)N3CCCCC3C(=O)OC(C(C)=CC3CCC(SCC(C)C(=O)OC)C(OC)C3)C(C)C(O)CC1=O)C(C)CC2OC` (stereo not drawn) [Example 40] reads 14.9 nM; that for `CCOC(=O)C(C)CSC1CCC(C=C(C)C2OC(=O)C3CCCCN3C(=O)C(=O)C3(O)OC(C(OC)CC(C)CC(C)=CC(CC)C(=O)CC(O)C2C)C(OC)CC3C)CC1OC` (stereo not drawn) [Example 41], 46.4 nM; that for `CCC1C=C(C)CC(C)CC(OC)C2OC(O)(C(=O)C(=O)N3CCCCC3C(=O)OC(C(C)=CC3CCC(SCC(C)C(=O)OCc4ccccc4)C(OC)C3)C(C)C(O)CC1=O)C(C)CC2OC` (stereo not drawn) [Example 42], 63.4 nM. The result for `CC[C@@H]1/C=C(\C)C[C@H](C)C[C@H](OC)[C@H]2O[C@@](O)(C(=O)C(=O)N3CCCC[C@H]3C(=O)O[C@H](/C(C)=C/[C@@H]3CC[C@H](SCC(C)C(=O)O)[C@H](OC)C3)[C@H](C)[C@@H](O)CC1=O)[C@H](C)C[C@@H]2OC` (stereo partly drawn) [Example 43] reads 22.6 nM. `CC[C@@H]1/C=C(\C)C[C@H](C)C[C@H](OC)[C@H]2O[C@@](O)(C(=O)C(=O)N3CCCC[C@H]3C(=O)O[C@H](/C(C)=C/[C@@H]3CC[C@H]([S+]([O-])c4ccc(O)cc4)[C@H](OC)C3)[C@H](C)[C@@H](O)CC1=O)[C@H](C)C[C@@H]2OC` (stereo partly drawn) [Example 48] yielded an IC50 of 0.9 nM. The result for `CC[C@@H]1/C=C(\C)C[C@H](C)C[C@H](OC)[C@H]2O[C@@](O)(C(=O)C(=O)N3CCCC[C@H]3C(=O)O[C@H](/C(C)=C/[C@@H]3CC[C@H](S(=O)(=O)c4ccc(O)cc4)[C@H](OC)C3)[C@H](C)[C@@H](O)CC1=O)[C@H](C)C[C@@H]2OC` [Example 49] reads 2.5 nM; that for `CC[C@@H]1/C=C(\C)C[C@H](C)C[C@H](OC)[C@H]2O[C@@](O)(C(=O)C(=O)N3CCCC[C@H]3C(=O)O[C@H](/C(C)=C/[C@@H]3CC[C@H]([S+]([O-])CCO)[C@H](OC)C3)[C@H](C)[C@@H](O)CC1=O)[C@H](C)C[C@@H]2OC` (stereo partly drawn) [Example 50], 0.24 nM. In turn, `CC[C@@H]1/C=C(\C)C[C@H](C)C[C@H](OC)[C@H]2O[C@@](O)(C(=O)C(=O)N3CCCC[C@H]3C(=O)O[C@H](/C(C)=C/[C@@H]3CC[C@H](S(=O)(=O)CCO)[C@H](OC)C3)[C@H](C)[C@@H](O)CC1=O)[C@H](C)C[C@@H]2OC` [Example 51] yielded an IC50 of 0.17 nM.

On to `CC[C@@H]1/C=C(\C)C[C@H](C)C[C@H](OC)[C@H]2O[C@@](O)(C(=O)C(=O)N3CCCC[C@H]3C(=O)O[C@H](/C(C)=C/[C@@H]3CC[C@H]([S+]([O-])CCCO)[C@H](OC)C3)[C@H](C)[C@@H](O)CC1=O)[C@H](C)C[C@@H]2OC` (stereo partly drawn) [Example 52], for which the IC50 was 1.8 nM. The result for `CC[C@@H]1/C=C(\C)C[C@H](C)C[C@H](OC)[C@H]2O[C@@](O)(C(=O)C(=O)N3CCCC[C@H]3C(=O)O[C@H](/C(C)=C/[C@@H]3CC[C@H](S(=O)(=O)CCCO)[C@H](OC)C3)[C@H](C)[C@@H](O)CC1=O)[C@H](C)C[C@@H]2OC` [Example 53] reads 0.04 nM.

The values are drawn from patent US5604234A, “Substituted thiol macrolactam immunomodulators” (Abbott Laboratories, priority 1995, dated 1997).
